Measured values reported in ChEMBL document CHEMBL4433259, “Rifamycin derivatives active against pathogenic rapidly-growing mycobacteria” (Bioorg Med Chem Lett, 2019).
Activity calls are given as the source filed them. No cut-off for these calls is given here.

How the values were obtained:
[1] = test system: Mycolicibacterium fortuitum; assay: Antimycobacterial activity against Mycobacterium fortuitum assessed as reduction in microbial growth by CLSI method; assay type: functional
[2] = Antimycobacterial activity against Mycobacterium abscessus subsp. bolletii assessed as reduction in microbial growth by CLSI method; assay type: functional; conditions: Mycobacteroides abscessus
[3] = test system: Mycobacteroides chelonae; assay: Antimycobacterial activity against Mycobacterium chelonae assessed as reduction in microbial growth by CLSI method; assay type: functional
[4] = Antimycobacterial activity against Mycobacterium abscessus subsp. massiliense assessed as reduction in microbial growth by CLSI method; assay type: functional; conditions: Mycobacteroides abscessus
[5] = test system: Mycolicibacterium smegmatis; assay: Antimycobacterial activity against Mycobacterium smegmatis assessed as reduction in microbial growth by CLSI method; assay type: functional
[6] = Antimycobacterial activity against Mycobacterium abscessus subsp. abscessus assessed as reduction in microbial growth by CLSI method; assay type: functional; conditions: Mycobacteroides abscessus
[7] = test system: Mycobacteroides abscessus; assay: Antimycobacterial activity against Mycobacterium abscessus FM0058 clinical isolate assessed as inhibition zone diameter at <3 ng after 3 days by disc diffusion method; assay type: functional, organism-based
[8] = test system: Mycobacteroides abscessus; assay: Antimycobacterial activity against Mycobacterium abscessus ATCC 19977 assessed as inhibition zone diameter at 25 ng after 3 days by disc diffusion method; assay type: functional
[9] = test system: Mycobacteroides abscessus; assay: Antimycobacterial activity against Mycobacterium abscessus ATCC 19977 assessed as inhibition zone diameter at <3 ng after 3 days by disc diffusion method; assay type: functional, organism-based
[10] = test system: Mycobacteroides abscessus; assay: Antimycobacterial activity against Mycobacterium abscessus ATCC 19977 assessed as inhibition zone diameter at 3.125 ng after 3 days by disc diffusion method; assay type: functional
[11] = test system: Mycobacteroides abscessus; assay: Antimycobacterial activity against Mycobacterium abscessus ATCC 19977 assessed as inhibition zone diameter at 1.56 ng after 3 days by disc diffusion method; assay type: functional
[12] = test system: Mycobacteroides abscessus; assay: Antimycobacterial activity against Mycobacterium abscessus FM0058 clinical isolate assessed as inhibition zone diameter at 25 ng after 3 days by disc diffusion method; assay type: functional
[13] = test system: Mycobacteroides abscessus; assay: Antimycobacterial activity against Mycobacterium abscessus FM0058 clinical isolate assessed as inhibition zone diameter at 200 ng after 3 days by disc diffusion method; assay type: functional
[14] = test system: Mycobacteroides abscessus; assay: Antimycobacterial activity against Mycobacterium abscessus FM0058 clinical isolate assessed as inhibition zone diameter at 6.25 ng after 3 days by disc diffusion method; assay type: functional
[15] = test system: Mycobacteroides abscessus; assay: Antimycobacterial activity against Mycobacterium abscessus ATCC 19977 assessed as inhibition zone diameter at 200 ng after 3 days by disc diffusion method; assay type: functional
[16] = test system: Mycobacteroides abscessus; assay: Antimycobacterial activity against Mycobacterium abscessus ATCC 19977 assessed as inhibition zone diameter at 800 ng after 3 days by disc diffusion method; assay type: functional
[17] = test system: Mycobacteroides abscessus; assay: Antimycobacterial activity against Mycobacterium abscessus ATCC 19977 assessed as inhibition zone diameter at 12.5 ng after 3 days by disc diffusion method; assay type: functional
[18] = test system: Mycobacteroides abscessus; assay: Antimycobacterial activity against Mycobacterium abscessus FM0058 clinical isolate assessed as inhibition zone diameter at 800 ng after 3 days by disc diffusion method; assay type: functional
[19] = test system: Mycobacteroides abscessus; assay: Antimycobacterial activity against Mycobacterium abscessus ATCC 19977 assessed as inhibition zone diameter at 400 ng after 3 days by disc diffusion method; assay type: functional
[20] = test system: Mycobacteroides abscessus; assay: Antimycobacterial activity against Mycobacterium abscessus FM0058 clinical isolate assessed as inhibition zone diameter at 100 ng after 3 days by disc diffusion method; assay type: functional
[21] = test system: Mycobacteroides abscessus; assay: Antimycobacterial activity against Mycobacterium abscessus FM0058 clinical isolate assessed as inhibition zone diameter at 12.5 ng after 3 days by disc diffusion method; assay type: functional
[22] = test system: Mycobacteroides abscessus; assay: Antimycobacterial activity against Mycobacterium abscessus FM0058 clinical isolate assessed as inhibition zone diameter at 400 ng after 3 days by disc diffusion method; assay type: functional
[23] = test system: Mycobacteroides abscessus; assay: Antimycobacterial activity against Mycobacterium abscessus ATCC 19977 assessed as inhibition zone diameter at 6.25 ng after 3 days by disc diffusion method; assay type: functional
[24] = test system: Mycobacteroides abscessus; assay: Antimycobacterial activity against Mycobacterium abscessus ATCC 19977 assessed as inhibition zone diameter at 50 ng after 3 days by disc diffusion method; assay type: functional
[25] = test system: Mycobacteroides abscessus; assay: Antimycobacterial activity against Mycobacterium abscessus FM0058 clinical isolate assessed as inhibition zone diameter at 1.56 ng after 3 days by disc diffusion method; assay type: functional
[26] = test system: Mycobacteroides abscessus; assay: Antimycobacterial activity against Mycobacterium abscessus FM0058 clinical isolate assessed as inhibition zone diameter at 3.125 ng after 3 days by disc diffusion method; assay type: functional
[27] = test system: Mycobacteroides abscessus; assay: Antimycobacterial activity against Mycobacterium abscessus FM0058 clinical isolate assessed as inhibition zone diameter at 50 ng after 3 days by disc diffusion method; assay type: functional
[28] = test system: Mycobacteroides abscessus; assay: Antimycobacterial activity against Mycobacterium abscessus ATCC 19977 assessed as inhibition zone diameter at 100 ng after 3 days by disc diffusion method; assay type: functional
[29] = Drug metabolism in Mycobacterium abscessus ATCC 19977 assessed as adenine ribosylated diphosphate derivative formation by LC/MS analysis; assay type: ADME; conditions: Mycobacteroides abscessus
[30] = Drug metabolism in Mycobacterium abscessus ATCC 19977 assessed as C23 ribosylated derivative formation by LC/MS analysis relative to control; assay type: ADME; conditions: Mycobacteroides abscessus

SMILES | MIC [1] | MIC [2] | MIC [3] | MIC [4] | MIC [5] | MIC [6] | diameter of the inhibition zone (DIZ) [7] | diameter of the inhibition zone (DIZ) [8] | diameter of the inhibition zone (DIZ) [9] | diameter of the inhibition zone (DIZ) [10] | diameter of the inhibition zone (DIZ) [11] | diameter of the inhibition zone (DIZ) [12] | diameter of the inhibition zone (DIZ) [13] | diameter of the inhibition zone (DIZ) [14] | diameter of the inhibition zone (DIZ) [15] | diameter of the inhibition zone (DIZ) [16] | diameter of the inhibition zone (DIZ) [17] | diameter of the inhibition zone (DIZ) [18] | diameter of the inhibition zone (DIZ) [19] | diameter of the inhibition zone (DIZ) [20] | further results
COc1ccccc1-c1cc(CNC(=O)O[C@H]2[C@H](C)[C@H](O)[C@H](C)[C@@H](O)[C@@H](C)/C=C/C=C(/C)C(=O)NC3=C(N4CCOCC4)C(=O)c4c(c(O)c(C)c5c4C(=O)[C@@](C)(O/C=C/[C@H](OC)[C@H]2C)O5)C3=O)on1 | 0.25 µg/mL | 16 µg/mL | 64 µg/mL | 64 µg/mL | 0.12 µg/mL | 64 µg/mL | – | – | – | – | – | – | – | – | – | – | – | – | – | – | –
CO[C@H]1/C=C/O[C@@]2(C)Oc3c(C)c(O)c4c(c3C2=O)C(=O)C(N2CCOCC2)=C(NC(=O)/C(C)=C\C=C\[C@H](C)[C@H](O)[C@@H](C)[C@@H](O)[C@@H](C)[C@H](OC(=O)NCc2cc(-c3ccccc3)no2)[C@@H]1C)C4=O | 0.0625 µg/mL | 0.125 µg/mL | 0.5 µg/mL | 0.5 µg/mL | – | 0.5 µg/mL | inactive | 0 mm | inactive | 0 mm | 0 mm | 7 mm | 21 mm | 0 mm | 16 mm | 24 mm | 0 mm | >30 mm | 20 mm | 17 mm | diameter of the inhibition zone (DIZ) [21]: 0 mm; diameter of the inhibition zone (DIZ) [22]: 26 mm; diameter of the inhibition zone (DIZ) [23]: 0 mm; diameter of the inhibition zone (DIZ) [24]: 7 mm; diameter of the inhibition zone (DIZ) [25]: 0 mm; diameter of the inhibition zone (DIZ) [26]: 0 mm; diameter of the inhibition zone (DIZ) [27]: 13 mm; diameter of the inhibition zone (DIZ) [28]: 12 mm
CO[C@H]1/C=C/O[C@@]2(C)Oc3c(C)c(O)c4c(c3C2=O)C(=O)C(N2CCOCC2)=C(NC(=O)/C(C)=C\C=C\[C@H](C)[C@H](O)[C@@H](C)[C@@H](O)[C@@H](C)[C@H](OC(=O)NCc2ccc(N(C)C)cc2)[C@@H]1C)C4=O | 1 µg/mL | 8 µg/mL | 16 µg/mL | 8 µg/mL | 0.06 µg/mL | 8 µg/mL | – | – | – | – | – | – | – | – | – | – | – | – | – | – | –
CO[C@H]1/C=C/O[C@@]2(C)Oc3c(C)c(O)c4c(c3C2=O)C(=O)C(N2CCOCC2)=C(NC(=O)/C(C)=C\C=C\[C@H](C)[C@H](O)[C@@H](C)[C@@H](O)[C@@H](C)[C@H](OC(=O)NCc2cc(-c3ccccn3)no2)[C@@H]1C)C4=O | 1 µg/mL | 8 µg/mL | 64 µg/mL | 8 µg/mL | 0.5 µg/mL | 8 µg/mL | inactive | 0 mm | inactive | 0 mm | 0 mm | 0 mm | 25 mm | 0 mm | 20 mm | 27 mm | 0 mm | >30 mm | 24 mm | 20 mm | diameter of the inhibition zone (DIZ) [21]: 0 mm; diameter of the inhibition zone (DIZ) [22]: 30 mm; diameter of the inhibition zone (DIZ) [23]: 0 mm; diameter of the inhibition zone (DIZ) [24]: 14 mm; diameter of the inhibition zone (DIZ) [25]: 0 mm; diameter of the inhibition zone (DIZ) [26]: 0 mm; diameter of the inhibition zone (DIZ) [27]: 9 mm; diameter of the inhibition zone (DIZ) [28]: 16 mm
CO[C@H]1/C=C/O[C@@]2(C)Oc3c(C)c(O)c4c(c3C2=O)C(=O)C(N2CCOCC2)=C(NC(=O)/C(C)=C\C=C\[C@H](C)[C@H](O)[C@@H](C)[C@@H](O)[C@@H](C)[C@H](OC(=O)NC2CCN(Cc3ccccc3)CC2)[C@@H]1C)C4=O | < 0.03 µg/mL | 0.0625 µg/mL | < 0.03 µg/mL | 0.25 µg/mL | 0.12 µg/mL | < 0.03 µg/mL | inactive | 16 mm | inactive | 0 mm | 0 mm | 20 mm | 29 mm | 11 mm | >30 mm | >30 mm | 13 mm | >30 mm | >30 mm | 24 mm | Drug metabolism [29]: Metabolite_Notdetected; Drug metabolism [30]: Metabolite_Notdetected; diameter of the inhibition zone (DIZ) [21]: 16 mm; diameter of the inhibition zone (DIZ) [22]: >30 mm; diameter of the inhibition zone (DIZ) [23]: 0 mm; diameter of the inhibition zone (DIZ) [24]: 21 mm; diameter of the inhibition zone (DIZ) [25]: 0 mm; diameter of the inhibition zone (DIZ) [26]: 0 mm; diameter of the inhibition zone (DIZ) [27]: 22 mm; diameter of the inhibition zone (DIZ) [28]: 24 mm
CO[C@H]1/C=C/O[C@@]2(C)Oc3c(C)c(O)c4c(c3C2=O)C(=O)C(N2CCOCC2)=C(NC(=O)/C(C)=C\C=C\[C@H](C)[C@H](O)[C@@H](C)[C@@H](O)[C@@H](C)[C@H](OC(=O)NCCN(C(C)C)C(C)C)[C@@H]1C)C4=O | 8 µg/mL | 0.25 µg/mL | 1 µg/mL | 1 µg/mL | – | 0.5 µg/mL | – | – | – | – | – | – | – | – | – | – | – | – | – | – | –
COc1ccc(CNC(=O)O[C@H]2[C@H](C)[C@H](O)[C@H](C)[C@@H](O)[C@@H](C)/C=C/C=C(/C)C(=O)NC3=C(N4CCOCC4)C(=O)c4c(c(O)c(C)c5c4C(=O)[C@@](C)(O/C=C/[C@H](OC)[C@H]2C)O5)C3=O)cc1 | 1 µg/mL | 16 µg/mL | > 64 µg/mL | 8 µg/mL | 0.06 µg/mL | 64 µg/mL | – | – | – | – | – | – | – | – | – | – | – | – | – | – | –
CO[C@H]1/C=C/O[C@@]2(C)Oc3c(C)c(O)c4c(O)c(c(/C=N/N5CCN(C)CC5)c(O)c4c3C2=O)NC(=O)/C(C)=C\C=C\[C@H](C)[C@H](O)[C@@H](C)[C@@H](O)[C@@H](C)[C@H](OC(C)=O)[C@@H]1C [RIFAMPIN] | > 64 µg/mL | > 64 µg/mL | > 64 µg/mL | > 64 µg/mL | 32 µg/mL | > 64 µg/mL | inactive | 0 mm | inactive | 0 mm | 0 mm | 0 mm | 0 mm | 0 mm | 0 mm | 0 mm | 0 mm | 0 mm | 0 mm | 0 mm | Drug metabolism [29]: Metabolite_Notdetected; diameter of the inhibition zone (DIZ) [21]: 0 mm; diameter of the inhibition zone (DIZ) [22]: 0 mm; diameter of the inhibition zone (DIZ) [23]: 0 mm; diameter of the inhibition zone (DIZ) [24]: 0 mm; diameter of the inhibition zone (DIZ) [25]: 0 mm; diameter of the inhibition zone (DIZ) [26]: 0 mm; diameter of the inhibition zone (DIZ) [27]: 0 mm; diameter of the inhibition zone (DIZ) [28]: 0 mm
